Laboratory results from US7183299B2 (priority 2001, dated 2007).

Experiments:
[1] = system: downy mildew (Plasmopara viticola) on grape; conditions: in vivo
[2] = system: late blight on tomato; format: in vivo, Plasmopara viticola; conditions: tomato (Hofuku), therapeutic effect, sprayed after inoculation, active ingredient 100 ppm, disease severity 7 days after inoculation

Row | Compound | Control value (%) [1] | Control value (%) [2]
1 | CCCCOC(=O)Nc1cccc(CON=C(c2ccc(Cl)cc2)n2nnnc2C)n1 [(19)-14] | 80% | 100%
2 | CCCCOC(=O)Nc1cccc(CON=C(c2ccc(C)cc2)n2nnnc2C)n1 [(19)-16] | 100% | 100%
3 | CCCCOC(=O)Nc1cccc(CON=C(c2ccc(OC)cc2)n2nnnc2C)n1 [(19)-23] | 70% | 80%
4 | CCCCOC(=O)Nc1cccc(CON=C(c2ccc(C#N)cc2)n2nnnc2C)n1 [(19)-25] | 90% | 90%
5 | CCCCCOC(=O)Nc1cccc(CON=C(c2ccc(S(C)(=O)=O)cc2)n2nnnc2C)n1 [(19)-28] | 100% | 100%
6 | CCCCOC(=O)Nc1cccc(CON=C(c2ccc([N+](=O)[O-])cc2)n2nnnc2C)n1 [(19)-29] | 80% | 100%
7 | CCCCOC(=O)Nc1cccc(CON=C(c2ccc(C(F)(F)F)cc2)n2nnnc2C)n1 [(19)-31] | 90% | 100%
8 | CCCCOC(=O)Nc1cccc(CON=C(c2ccccc2)n2nnnc2C)n1 [(19)-33] | 100% | 100%
9 | CCCCOC(=O)Nc1cccc(CON=C(c2ccc(CC)cc2)n2nnnc2C)n1 [(19)-34] | 80% | 100%
10 | CCCCOC(=O)Nc1cccc(CON=C(c2ccc(C(C)(C)C)cc2)n2nnnc2C)n1 [(19)-35] | 70% | 80%
11 | Cc1nnnn1C(=NOCc1csc(NC(=O)OC(C)(C)C)n1)c1cccc(F)c1 [(20)-1] | 70% | 80%
12 | (Z)-(1-methyltetrazol-5-yl)phenylmethanoneoxime 0-(2-(n-pentyloxycarbonylamino)thiazol-4-yl)methyloxime [(4)-9] | 80% | 100%
